pIC50: −log10 of the molar value. Where two headings read alike, the source gives them in different places.
Assays:
[1] = system: Jurkat HIV-luciferase clones; experiment: Jurkat latency reversal assay; assay type: cell-based; conditions: Homo sapiens, 48 h; Jurkat latency reversal assay potency; read-out: Jurkat pEC50 (converted)
Method in brief: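 Three pooled Jurkat reporter clones, each with one or two integrated HIV-luciferase proviruses, 5,000 cells/well; duplicate 14-point titrations starting at 10 μM; 48 h, 37° C, then Steady-Glo luminescence; four-parameter logistic analysis yields EC50 and percent maximal activation against DMSO vehicle.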

cIAP1-BIR3 = cIAP1-BIR3 (Homo sapiens (Human), UniProt Q13490); experiment: BIR binding assay (FRET competition), cIAP1 BIR3; conditions: for cIAP1 BIR3 vs BIR2 separation window: fold separation (FS) for cIAP1
Sequence of cIAP1-BIR3 (Q13490 253-363): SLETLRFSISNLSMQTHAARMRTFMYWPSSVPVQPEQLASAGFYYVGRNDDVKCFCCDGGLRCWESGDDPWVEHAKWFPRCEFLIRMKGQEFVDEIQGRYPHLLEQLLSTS
Method in brief: (§1)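 615/665 nm FRET ratio. Compound, His-domain and 200 nM AF647-SMAC peptide incubated 60 min, then 2 nM Eu-W1024 for 30 min. Domains: cIAP1-BIR3 50 nM; XIAP-BIR3 100 nM; cIAP1-BIR2, cIAP2-BIR2 325 nM each. 15-pt 3-fold series; variable-slope IC50.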

cIAP1-BIR2 = cIAP1-BIR2 (Homo sapiens (Human), UniProt Q13490); experiment: BIR binding assay (FRET competition), cIAP1 BIR2
Sequence of cIAP1-BIR2 (Q13490 173-257): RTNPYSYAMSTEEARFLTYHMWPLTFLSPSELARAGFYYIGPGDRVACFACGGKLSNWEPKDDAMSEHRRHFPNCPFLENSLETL
Method in brief: as §1

cIAP2-BIR3 = cIAP2-BIR3 (Homo sapiens (Human), UniProt Q13489); experiment: BIR binding assay (FRET competition), cIAP2 BIR3; conditions: for cIAP2 BIR3 vs BIR2 separation window: fold separation (FS) for cIAP2
Sequence of cIAP2-BIR3 (Q13489 238-349): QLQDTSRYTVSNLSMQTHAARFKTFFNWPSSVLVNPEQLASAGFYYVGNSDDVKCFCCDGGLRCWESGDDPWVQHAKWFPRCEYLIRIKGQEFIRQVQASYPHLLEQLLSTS

cIAP2-BIR2 = cIAP2-BIR2 (Homo sapiens (Human), UniProt Q13489); experiment: BIR binding assay (FRET competition), cIAP2 BIR2
Sequence of cIAP2-BIR2 (Q13489 158-242): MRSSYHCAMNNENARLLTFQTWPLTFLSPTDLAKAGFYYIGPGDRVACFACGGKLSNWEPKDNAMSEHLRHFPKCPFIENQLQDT
Method in brief: as §1

XIAP-BIR3 = XIAP-BIR3 (Homo sapiens (Human), UniProt P98170); experiment: BIR binding assay (FRET competition), XIAP BIR3; conditions: for XIAP BIR3 vs BIR2 separation window: fold separation (FS) for XIAP
Sequence of XIAP-BIR3 (P98170 241-356): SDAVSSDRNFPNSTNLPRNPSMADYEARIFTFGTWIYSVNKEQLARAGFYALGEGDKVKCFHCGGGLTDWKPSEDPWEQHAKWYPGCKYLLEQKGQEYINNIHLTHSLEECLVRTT
Method in brief: as §1

XIAP-BIR2 = XIAP-BIR2 (Homo sapiens (Human), UniProt P98170); experiment: BIR binding assay (FRET competition), XIAP BIR2; conditions: for IC50: read-out: XIAP BIR2 (pIC50) (converted)
Sequence of XIAP-BIR2 (P98170 124-240): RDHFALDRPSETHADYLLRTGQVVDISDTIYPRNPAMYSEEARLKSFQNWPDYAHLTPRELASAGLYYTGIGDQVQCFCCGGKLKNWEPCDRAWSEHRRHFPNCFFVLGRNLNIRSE
Method in brief: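 Competitive TR-FRET used His-tagged XIAP-BIR2 (200 nM) and 200 nM AlexaFluor647-labelled AVPIAQKSE SMAC peptide in HEPES buffer pH 7.4 with CHAPS, glycerol and DTT, incubated 60 min before 30 min with 2 nM Eu-W1024. The 615/665 nm ratio from a 15-point, 3-fold series was fit with a four-parameter model for IC50/pIC50.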

C[C@@H]1CN(CC(=O)N2CC(C)(C)c3ncc(Cc4cccnc4)cc32)[C@@H](CN2CCO[C@H](COc3cccc(OC[C@@H]4CN(C[C@H]5CN[C@H](C)CN5CC(=O)N5CC(C)(C)c6ncc(Cc7cccnc7)cc65)CCO4)c3)C2)CN1 [Compound 146]
EC50 [1]: 0.316 to 3.31 µM
pIC50 (cIAP1-BIR3): 8.10 to 8.86
cIAP1 BIR3 vs BIR2 separation window (cIAP1-BIR3): ++++ (FS>10,000)
pIC50 (cIAP1-BIR2): 4.29 to 5.00
pIC50 (cIAP2-BIR3): 8.10 to 8.86
cIAP2 BIR3 vs BIR2 separation window (cIAP2-BIR3): ++++ (FS>10,000)
pIC50 (cIAP2-BIR2): 4.29 to 5.00
pIC50 (XIAP-BIR3): 6.30 to 7.50
XIAP BIR3 vs BIR2 separation window (XIAP-BIR3): ++++ (FS>10,000)
pIC50 (XIAP-BIR2): 4.29 to 5.00

C[C@@H]1CN(CC(=O)N2CC(C)(C)c3[nH]c(=O)c(Cc4ccc(F)cc4)cc32)[C@@H](CN2CCC(CNC(=O)Cc3ccc(CC(=O)NCC4CCN(C[C@H]5CN[C@H](C)CN5CC(=O)N5CC(C)(C)c6[nH]c(=O)c(Cc7ccc(F)cc7)cc65)CC4)cc3)CC2)CN1 [Example 102, 2,2′-(1,4-phenylene)bis(N-((1-(((2R,5R)-1-(2-(6-(4-fluorobenzyl)-3,3-dimethyl-5-oxo-2,3,4,5-tetrahydro-1H-pyrrolo[3,2-b]pyridin-1-yl)-2-oxoethyl)-5-methylpiperazin-2-yl)methyl)piperidin-4-yl)methyl)acetamide)]
EC50 [1]: 0.0631 to 0.316 µM
pIC50 (cIAP1-BIR3): 7.80 to 8.10
cIAP1 BIR3 vs BIR2 separation window (cIAP1-BIR3): +++ (10,000>FS>1,000)
pIC50 (cIAP1-BIR2): 5.00 to 5.50
pIC50 (cIAP2-BIR3): 7.80 to 8.10
cIAP2 BIR3 vs BIR2 separation window (cIAP2-BIR3): ++++ (FS>10,000)
pIC50 (cIAP2-BIR2): 5.00 to 5.50
pIC50 (XIAP-BIR3): 7.80 to 8.10
XIAP BIR3 vs BIR2 separation window (XIAP-BIR3): ++++ (FS>10,000)
IC50 (XIAP-BIR2; FRET competition binding): 10 to 51.3 µM

C[C@@H]1CN(CC(=O)N2CC(C)(C)c3[nH]c(=O)c(Cc4ccc(C(F)F)cc4)cc32)[C@@H](CN2CCO[C@H](C(=O)NCc3ccc(CNC(=O)[C@@H]4CN(C[C@H]5CN[C@H](C)CN5CC(=O)N5CC(C)(C)c6[nH]c(=O)c(Cc7ccc(C(F)F)cc7)cc65)CCO4)cc3)C2)CN1 [Compound 166, (2S,2′S)-N,N′-(1,4-phenylenebis(methylene)) bis(4-(((2R,5R)-1-(2-(6-(4-(difluoromethyl)benzyl)-3,3-dimethyl-5-oxo-2,3,4,5-tetrahydro-1H-pyrrolo[3,2-b]pyridin-1-yl)-2-oxoethyl)-5-methylpiperazin-2-yl)methyl)morpholine-2-carboxamide)]
EC50 [1]: 0.316 to 3.31 µM
pIC50 (cIAP1-BIR3): 7.80 to 8.10
cIAP1 BIR3 vs BIR2 separation window (cIAP1-BIR3): ++ (1,000>FS>100)
pIC50 (cIAP1-BIR2): 6.00 to 7.65
pIC50 (cIAP2-BIR3): 8.10 to 8.86
cIAP2 BIR3 vs BIR2 separation window (cIAP2-BIR3): +++ (10,000>FS>1,000)
pIC50 (cIAP2-BIR2): 6.00 to 7.65
pIC50 (XIAP-BIR3): 7.50 to 7.80
XIAP BIR3 vs BIR2 separation window (XIAP-BIR3): ++++ (FS>10,000)
IC50 (XIAP-BIR2; FRET competition): 10 to 51.3 µM

C[C@@H]1CN(CC(=O)N2CC(C)(C)c3[nH]c(=O)c(Cc4ccc(F)cc4)cc32)[C@@H](CN2CCN(C(=O)c3ccnc(-c4cc(C(=O)N5CCN(C[C@H]6CN[C@H](C)CN6CC(=O)N6CC(C)(C)c7[nH]c(=O)c(Cc8ccc(F)cc8)cc76)[C@H](C)C5)ccn4)c3)C[C@H]2C)CN1 [Example 23, 1,1′-(2,2′-((3R,3′R,6R,6′R)-(((2R,2′R)-([2,2′-bipyridine]-4,4′-dicarbonyl)bis(2-methylpiperazine-4,1-diyl))bis(methylene))bis(3-methylpiperazine-6,1-diyl))bis(acetyl))bis(6-(4-fluorobenzyl)-3,3-dimethyl-1,2,3,4-tetrahydro-5H-pyrrolo[3,2-b]pyridin-5-one)]
EC50 [1]: 0.0631 to 0.316 µM
pIC50 (cIAP1-BIR3): 8.10 to 8.86
pIC50 (cIAP1-BIR2): 5.50 to 6.00
pIC50 (cIAP2-BIR3): 8.10 to 8.86
pIC50 (cIAP2-BIR2): 5.50 to 6.00
pIC50 (XIAP-BIR3): 8.10 to 8.86
IC50 (XIAP-BIR2; FRET competition binding): 10 to 51.3 µM

C[C@@H]1CN(CC(=O)N2CC(C)(C)c3[nH]c(=O)c(Cc4ccc(F)cc4)cc32)[C@@H](CN2CCN(Cc3cn(CC(=O)N4CCN(C[C@H]5CN[C@H](C)CN5CC(=O)N5CC(C)(C)c6[nH]c(=O)c(Cc7ccc(F)cc7)cc65)[C@H](C)C4)nn3)C[C@H]2C)CN1 [Compound 155]
EC50 [1]: 0.316 to 3.31 µM
pIC50 (cIAP1-BIR3): 8.10 to 8.86
cIAP1 BIR3 vs BIR2 separation window (cIAP1-BIR3): +++ (10,000>FS>1,000)
pIC50 (cIAP1-BIR2): 5.50 to 6.00
pIC50 (cIAP2-BIR3): 7.80 to 8.10
cIAP2 BIR3 vs BIR2 separation window (cIAP2-BIR3): +++ (10,000>FS>1,000)
pIC50 (cIAP2-BIR2): 5.50 to 6.00
pIC50 (XIAP-BIR3): 7.50 to 7.80
XIAP BIR3 vs BIR2 separation window (XIAP-BIR3): ++++ (FS>10,000)
IC50 (XIAP-BIR2; FRET competition): 10 to 51.3 µM

Source: patent publication US20250326771A1, “PIPERAZINE DERIVATIVES USEFUL IN HIV THERAPY” (VIIV HEALTHCARE COMPANY, priority 2022, published 2025)
